Like-named read-outs stand apart in the source and are kept apart here.
How the values were obtained:
α-chymotrypsin [1] = molecular target: T1, α-chymotrypsin (Bos taurus, UniProt P00766); assay: TEM of α-Ch/azoTAB solutions; design: species or system bovine; settings: two weeks (fresh solution) or approx. one year (SANS solution, pH 3, 4.2 mM azoTAB)
T1 construct: α-Ch results from the removal of two dipeptides at positions 14-15 and 147-148 in chymotrypsinogen; purchased Sigma C-4129 (lot # 105K7670); host or cells: bovine pancreas
Description: Transmission electron microscopy was performed on a Philips EM420 TEM operating at 80 kV. A drop of protein solution was placed on a carbon-coated grid for 10 seconds and then blotted with filter paper, followed by repeating this procedure with a second drop. The grid was then placed in a freshly made 1 wt % uranyl acetate solution for 30 s.

α-chymotrypsin [2] = molecular target: T1, α-chymotrypsin; assay: Congo red staining, optical microscopy of α-Ch/azoTAB solution; design: species or system bovine; settings: α-Ch/azoTAB solution aged for five days
Description: Optical microscopy was performed on an Olympus IX71 inverted fluorescence microscope equipped using a 50× lens (Olympus, model SLCPlanFl) and a U-N41027 CAL CRIM C58158 filter cube (Chroma, model 058158). Images were recorded with a Hamamatsu digital CCD camera (model C4742-95). Aliquots (5-10 μL) of the protein-surfactant solution were deposited onto glass slides and dyed with an equal volume of a 400 μM Congo red aqueous solution.

chymotrypsinogen-A = molecular target: T2, chymotrypsinogen-A (Bos taurus, UniProt P00766); assay: SAXS of chymotrypsinogen-A/azoTAB solutions; design: species or system bovine
T2 construct: Chymotrypsinogen is the zymogen of α-chymotrypsin; purchased Worthington LS005630; host or cells: bovine pancreas
Description: The small-angle X-ray scattering data were measured using the X21 beamline at the National Synchrotron Light Source at the Brookhaven National Laboratory. (28) The X-ray wavelength was set to 1.24 Å with a pair of Si(111) monochromator crystals. The sample-to-detector distance was calibrated to be 1.69 m using a silver behenate standard. To avoid radiation damage, solutions were continuously passed at a flow rate of 60 μL/min through a 1-mm glass capillary housed within an aluminum block containing Plexiglas observation windows. (28) The net intensities were corrected for the background and solvent scattering as well as sample transmission, and were put on an absolute scale by comparison with a calibration standard (10 mg/mL BSA (10)).

[3] = cited from earlier work
α-chymotrypsin [4] = molecular target: T1, α-chymotrypsin; assay: SANS of α-chymotrypsin/azoTAB solutions (Guinier, PDDF, shape reconstruction); design: species or system bovine
Description: Small-angle neutron scattering experiments were performed on the 30-m NG3 SANS instruments at NIST. (24) A neutron wavelength of λ=6 Å and a detector offset of 25 cm with two sample-detector distances of 1.33 and 7.0 m were utilized to achieve a Q range of 0.0048-0.46 Å^−1. The net intensities were corrected for the background and empty cell (pure D2O), accounting for the detector efficiency using the scattering from an isotropic scatterer (Plexiglas), and converted to an absolute differential cross section per unit sample volume (in units of cm^−1) using an attenuated empty beam. The data were then corrected for incoherent scattering by subtracting a constant background. The shape-reconstruction algorithm GA_STUCT (11) was used to generate solution conformations, similar to previous studies (10, 11). Beginning with an initial guess of randomly-distributed scattering centers, the program rearranges the position of the scattering centers to best fit the experimental scattering data.
The weight-average molecular weight (Mw) of each sample was calculated from the equation
where ρS and ρP are the scattering length densities of the solvent (6.36×10^10 cm^−2) and protein (3.23×10^10 cm^−2), respectively, c is the protein concentration (11.6 mg/mL at pH 3 and 11.4 mg/mL at pH 7), and υ is the protein specific volume (0.734 cm^3/g). (25) I(0)-values were determined from Guinier plots (25) using I(Q)=I(0)exp(−Q^2Rg^2/3), where Rg is the radius of gyration. Guinier plots, generally valid for QRg<1.3, can be influenced by solution structuring due to intermolecular interactions between charged proteins, which becomes increasingly important as Q decreases below 1.5/R (10) (or <0.05 Å^−1 using an α-Ch radius ˜30 Å). Thus, pair distance distribution functions were calculated from the SANS data using the program GNOM (26) according to the equation
where P(r) is related to the probability of two scattering centers (nuclei for SANS) being a distance r+dr apart, and Dmax is the maximum distance between scattering centers within the protein or protein oligomer. I(0)-values were then obtained from the PDDFs through I(0)=4π∫0^D^maxP(r)dr, which has the advantage of utilizing the entire Q-range to determine I(O), as opposed to just the low-Q values as in Guinier analysis (27).

α-chymotrypsin [5] = molecular target: T1, α-chymotrypsin; assay: FT-IR secondary structure of α-Ch/azoTAB mixtures; design: species or system bovine; settings: addition of trans azoTAB to pure α-Ch, and UV exposure of α-Ch/azoTAB
Description: Infrared spectra were measured with a Genesis II FT-IR spectrometer (Mattson Instruments). Solutions were loaded in a demountable liquid cell equipped with a circulating water jacket (T=20° C.) between a pair of CaF2 windows using a 50 μm Teflon spacer. A liquid light guide (Oriel, model no. 77557) was used to directly illuminate the sample with UV or visible light for 2 hours prior to and during data collection, as previously described (9). The sample chamber was continuously purged with dry air to eliminate the influence of water vapor. For each spectrum, a 500-scan interferogram was collected with a 2 cm^−1 resolution. The relatively sharp surfactant peaks at ˜1600 cm^−1 were removed by subtracting the spectra measured for a pure surfactant solution under otherwise identical conditions, resulting in corrected spectra that were flat in the region between 2000 and 1750 cm^−1. Fourier self-deconvolution (FSD) was applied to spectra to resolve the overlapping bands in the Amide I region using a band-narrowing factor k=2.0 and a full width at half height of 12.6 cm^−1. Second derivative spectra were obtained with the Savitsky-Golay function for a 3rd order polynomial, using a 13 data point window. […] Difference spectra obtained for pure α-chymotrypsin solutions without surfactant shown no significant absorbance changes (<1% throughout the amide I region).

- fibril diameter (α-chymotrypsin [1]): ca. 10 nm
- Rg of chymotrypsinogen (Guinier) (chymotrypsinogen-A; 24 mM azoTAB, visible light, 10.0 mg/mL protein): 19.7 Å
- increase in I(0) relative to the monomer data (chymotrypsinogen-A; UV light, 19 mM and 24 mM azoTAB): 12 fold
- time for complete visible-light induced dissociation of UV-equilibrated samples (chymotrypsinogen-A; re-exposure to 434-nm visible light): several hours
- I(0) (chymotrypsinogen-A; visible light): 0.2 to 0.25 cm⁻¹
- Rg from second Guinier slope (monomer) (α-chymotrypsin [4]; Q^2 ~0.01-0.03 Å^-2, α-Ch/azoTAB solutions, pH 3 and pH 7, visible and UV): 17.0-18.2 Å
- type of protein self-association (α-chymotrypsin [4]; UV light (cis azoTAB)): monomer-dodecamer equilibrium
- Dmax of oligomer (PDDF) (α-chymotrypsin [4]; UV light, dodecamer): ~160 Å
- most probable dimension (PDDF peak) (α-chymotrypsin [4]; UV light, dodecamer): 40-50 Å
- effective oligomer size n^eff reached with increasing surfactant concentration (α-chymotrypsin [4]; UV light, SANS and SAXS data): 12
- scaling exponent of Rg^n with oligomer Mw (α-chymotrypsin [4]; hexamer or dodecamer, compared to monomer Rg): 0.42±0.03
- increase in Rg with the addition of azoTAB (α-chymotrypsin [4]; monomer Rg, Table 1): 7%
- type of protein self-association (α-chymotrypsin [4]; visible light (trans azoTAB)): monomer-hexamer equilibrium
- Dmax of oligomer (PDDF) (α-chymotrypsin [4]; visible light, hexamer): ~120 Å
- FT-IR change on association (α-chymotrypsin [5]): increase in peaks at 1612 and 1685 cm^−1
SMILES: CCc1ccc(/N=N/c2ccc(OCC[N+](C)(C)C)cc2)cc1 [azoTAB, azobenzene-trimethylammonium bromide surfactant]
- Congo red staining result (α-chymotrypsin [2]): characteristic Congo red fluorescence as well as “apple green” birefringence
- isomer ratio ([3]; 350-nm UV light): 90/10
- trans isomer ([3]; in the dark, about 24 hours): ~100%
- isomer ratio ([3]; visible light, 434 nm): 75/25
- cis→trans isomerization kinetics ([3]; visible light): within minutes
